We go through two compounds from patent publication US11952364B2, “TRK inhibitors useful as anticancer drugs” (TYLIGAND BIOSCIENCE (SHANGHAI) LIMITED, priority 2018, dated 2024).

Series [1] is described as follows: Solubility in simulated fluids and PBS. It is filed as physicochemical. The note with it: for solubility: thermodynamic from solid, 25° C. The text has this: According to the well-known standard methods conventional in the art for solubility determination, for example those described in Kems, Edward H. and Di Li (2008). Drug-like Properties: Concepts, Structure Design and Methods: from ADME to Toxicity Optimization. San Diego: Academic Press), the solubility properties of the compounds of the present disclosure were investigated as follows, in testing systems of FaSSGF (pH 1.6) (Biorelevant, Fasted State Simulated gastric fluids), FeSSIF (pH 5.8) (Biorelevant, Fed State Simulated Intestinal Fluid), FaSSIF (pH 6.5) (Biorelevant, Fasted State Simulated Intestinal Fluid) and PBS buffer (Hyclone, Cat No. SH30256.01B).
Accurately weighed ˜1 mg of test compound dry powder was charged into a glass bottle, and added an appropriate volume of each of the above test system solutions, to prepare a 4 mg/mL working solution. The sample bottle was placed on a shaker at room temperature (25° C.) and shook at 1000 rpm for 1 hour, then stood overnight for equilibrium. All samples were centrifuged at 12000 rpm at 25° C. for 10 minutes. Solutions of different concentrations for each compound were prepared in DMSO as the standard solutions. 580 μL of 20% (v/v) acetonitrile aqueous solution (containing 40 ng/mL tolbutamide as internal standard) was added into each well of three microplates, and mixed uniformly. 20 μL of 4 mg/mL working solution or standard solution was added to the wells of the first microplate and mixed uniformly, from which 20 μL was taken and added to the corresponding well of the second microplate, and mixed uniformly, from which again 20 μL was taken from each well and added to the corresponding wells of the third microplate, and mixed uniformly. Mass spectrometry was adopted to analyze the samples (LC-MS/MS-014, API4000), a standard curve was developed based on the concentrations of the standard solutions, and the solubility of the test compound was calculated.

Series [2] deals with P450 2C19 (Homo sapiens (Human), UniProt P33261). The series can be described thus: Cytochrome P450 inhibition in human liver microsomes. Type of series: in vitro ADME. The text has this: According to the standard methods conventional in the art for cytochrome P450 enzyme system study, for example those described in Kerns, Edward H. and Di Li (2008). Drug-like Properties: Concepts. Structure Design and Methods: from ADME to Toxicity Optimization. San Diego: Academic Press; Lin, Tong et al., In Vitro Assessment of Cytochrome P450 Inhibition: Strategies for Increasing LC/MS-Based Assay Throughput Using a One-Point IC50 Method and Multiplexing High-Performance Liquid Chromatography; J. Pharm. Sci. 2007, 96(9), 2485.), the inhibitory effect of the compounds of the present disclosure on the cytochrome P450 enzyme system was investigated analogously as follows. The test compounds were evaluated by detecting the metabolism of human liver microsomes for the substrates of different subtypes of Cyp450. The liver microsomes (Sekisui XenoTech, LLC., human liver microsomes, cat. #H0610) were slowly melted on ice, and 0.482 mL of the liver microsome solution (20 mg/mL) was added to 30 mL of 100 mM potassium phosphate solution to prepare a liver microsome working solution with a concentration of 0.316 mg/mL. The test compound and specific inhibitors of different Cyp450 subtypes (as a control) were prepared into 10 mM DMSO solutions, and then 20 μL of the 10 mM DMSO compound solution was added to 180 μL of acetonitrile to obtain a 1 mM compound solution. 2 μL of such 1 mM test compound or inhibitor solution was added to 150 μL of 0.316 mg/mL liver microsome working solution to obtain a 13.16 μM compound working solution. 45.3 mg of NADPH (SIGMA, cat. #V900362) was weighted and added into 13.59 mL of deionized water to prepare a 4 mM NADPH aqueous solution. 0.2 mL of 2 mg/mL internal standard stock solution (dexamethasone in acetonitrile) was added to 1000 mL of acetonitrile (SIGMA, cat. #271004) to prepare a reaction stop solution and stored at 4° C. 150 μL 0.316 mg/mL human liver microsome working solution was added to each well of a 96-well deep plate, and 2 μL of 1 mM specific inhibitor or test compound solution was added to the corresponding wells, and then added to each well 50 μL preheated working solution of each substrate (in 4 mM NADPH solution). After incubating for 5-40 minutes respectively (different enzymes have different incubation times), 200 μL of pre-cooled reaction stop solution was added. All samples were centrifuged at 4000 rpm for 20 minutes. 150 μL of the centrifugal supernatant was then added to a new 96-well deep plate, and added to each well 150 μL of 0.1% formic acid aqueous solution, for analysis by LC/MS/MS (SCI AP4000). The single point IC50 values were calculated according to the following formula. [formula] • (Assuming Hill slope=1) • C0=concentration of test compound and inhibitor solution
Chain of P450 2C19 (P33261 whole entry): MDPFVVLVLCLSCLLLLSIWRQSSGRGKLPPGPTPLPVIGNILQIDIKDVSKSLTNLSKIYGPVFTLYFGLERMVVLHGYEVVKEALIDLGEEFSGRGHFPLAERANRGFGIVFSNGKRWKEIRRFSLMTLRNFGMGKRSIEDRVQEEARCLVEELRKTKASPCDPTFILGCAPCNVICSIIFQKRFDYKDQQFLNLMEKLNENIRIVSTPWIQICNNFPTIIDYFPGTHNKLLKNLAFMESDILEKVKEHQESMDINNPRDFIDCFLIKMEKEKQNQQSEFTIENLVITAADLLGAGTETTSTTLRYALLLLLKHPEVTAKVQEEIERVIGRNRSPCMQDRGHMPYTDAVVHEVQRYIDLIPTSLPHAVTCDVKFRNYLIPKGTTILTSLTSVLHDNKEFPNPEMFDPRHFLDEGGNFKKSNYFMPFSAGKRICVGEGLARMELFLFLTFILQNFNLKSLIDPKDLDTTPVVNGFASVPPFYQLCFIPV
Background: Liver microsomes are a subcellular fraction often used to study metabolism.

[3] abbreviates: PBS buffer, aqueous buffer, PBS pH 7.4, read-out: Solubility PBS (pH 7.4).
Setting [4] is: fassgf or other biorelevant, FaSSGF pH 1.6, read-out: Solubility FaSSGF (pH 1.6).
Setting [5] is: FaSSIF pH 6.5, read-out: Solubility FaSSIF (pH 6.5).
The mark [6] stands for this setting: FeSSIF pH 5.8, read-out: Solubility FeSSEF (pH 5.8).

In general, solubility refers to how much of the substance goes into solution per volume. What is called IC50 is the point on the concentration scale where inhibition reaches its midpoint.

Molecules are shown by their SMILES. ≈ marks a conversion by molar mass, not a printed value. Like-named read-outs stand apart in the source and are kept apart here.

For the compound `COc1ccc(C(=O)Nc2ccc(Oc3cc4cnn(C)c4cc3-c3cn[nH]c3)c(F)c2)c(=O)n1-c1ccc(F)cc1` [Example 12, N-(3-fluoro-4-(1-methyl-6-(1H-pyrazol-4-yl)-1H-indazol-5-yloxy)phenyl)-1-(4-fluorophenyl)-6-methoxy-2-oxo-1,2-dihydropyridine-3-carboxamide], the solubility was 0.01 µg/mL (≈ 0.0176 µM) in series [1] (setting [3]), 27.7 µg/mL (≈ 48.7 µM) in series [1] (setting [4]), 5.47 µg/mL (≈ 9.62 µM) in series [1] (setting [5]) and 53.3 µg/mL (≈ 93.7 µM) in series [1] (setting [6]). Also, in series [1] (statement in words), the “solubility compared with Merestinib” value is “significantly improved solubility as compared with Merestinib”. The IC50 in series [2] is greater than 10 µM.

On to `Cc1ccc(C(=O)Nc2ccc(Oc3cc4cnn(C)c4cc3-c3cn[nH]c3)c(F)c2)c(=O)n1-c1ccc(F)cc1` [Merestinib, reference compound], for which the solubility was 0.02 µg/mL (≈ 0.0362 µM) in series [1] (setting [3]), 19.3 µg/mL (≈ 34.9 µM) in series [1] (setting [4]), 3.07 µg/mL (≈ 5.56 µM) in series [1] (setting [5]) and 33.7 µg/mL (≈ 61 µM) in series [1] (setting [6]). In series [2], this compound yielded an IC50 greater than 10 µM.
